Experimental data taken from patent US20070198063A1, “Electrical devices and anti-scarring drug combinations” (priority 2005, published 2007).
Values after ≈ are worked out from the molar mass of the structure shown.

Key:
C. glabrata = settings: manganese compound as enhancer; cited from earlier work
[1] = solvent named in the value; cited from earlier work
S. pyogenes C721 = experiment: MIC by microtitre broth dilution; format: cell-based; settings: Streptococcus pyogenes; S. pyogenes C721 wt Gram+; Todd Hewitt broth, 37° C., 24 h; read-out: Minimum inhibitory concentration
Description: (§1) MIC assays were conducted essentially as described by Amsterdam, D. 1996, “Susceptibility testing of antimicrobials in liquid media”, p. 52-11, in Loman, V., ed. Antibiotics in laboratory medicine, 4th ed. Williams and Wilkins, Baltimore, Md.

[2] = system: P. aeruginosa PAE/K799 H187; experiment: MIC by microtitre broth dilution; format: cell-based; settings: Pseudomonas aeruginosa; P. aeruginosa PAE/K799 H187 wt Gram−; Mueller Hinton broth, 37° C., 24 h; read-out: Minimum inhibitory concentration
Description: as §1

S. aureus ATCC25923 C622 = experiment: MIC by microtitre broth dilution; format: cell-based; settings: Staphylococcus aureus; S. aureus ATCC25923 C622 wt Gram+; Mueller Hinton broth, 37° C., 24 h; read-out: Minimum inhibitory concentration
Description: as §1

S. epidermidis C621 = experiment: MIC by microtitre broth dilution; format: cell-based; settings: Staphylococcus epidermidis; S. epidermidis C621 wt Gram+; Mueller Hinton broth, 37° C., 24 h; read-out: Minimum inhibitory concentration
Description: as §1

collagenase = format: cell-based, calf; settings: primary chondrocytes, pre-incubation 6 hours, then IL-1 20 ng/ml 18 hours; 'as low as'
Description: Primary chondrocyte cultures were freshly isolated from calf cartilage. The cells were plated at 2.5×10^6 per ml in 100×20 mm culture dishes and incubated in Ham's F12 medium containing 5% FBS overnight at 37° C. The cells were starved in serum-free medium overnight and then treated with anti-microtubule agents at various concentrations for 6 hours. IL-1 (20 ng/ml) was then added to each plate and the plates incubated for an additional 18 hours. Total RNA was isolated by the acidified guanidine isothiocyanate method and subjected to electrophoresis on a denatured gel. Denatured RNA samples (15 μg) were analyzed by gel electrophoresis in a 1% denatured gel, transferred to a nylon membrane and hybridized with the ^32P-labeled collagenase cDNA probe. ^32P-labeled glyceraldehyde phosphate […] (GAPDH) cDNA as an internal standard to ensure roughly equal loading. The exposed films were scanned and quantitatively analyzed with IMAGEQUANT.

[3] = particularly in normal saline; cited from earlier work
ERK = settings: cited from earlier work
joint swelling = settings: chronic / adjuvant model; component alone (prednisolone at reduced dose); cited from earlier work
p38 and JNK = settings: cited from earlier work
GRE reporter plasmid = settings: T cells; cited from earlier work
NFAT = settings: cited from earlier work
TNF-α = settings: acute in vivo model; component alone (prednisolone at reduced dose); cited from earlier work
NFkB and AP1 = settings: cited from earlier work
collagenase-1 (MMP-1) = experiment: IL-1 induced MMP-1 (collagenase) mRNA expression in chondrocytes, Northern blot; format: cell-based
Description: (§2) Cells were treated with paclitaxel at various concentrations (10^−7 to 10^−5 M) for 24 hours, then treated with IL-1β (20 ng/ml) for additional 18 hours in the presence of paclitaxel. Total RNA was isolated, and the MMP-1 mRNA levels were determined by Northern blot analysis. The blots were subsequently stripped and reprobed with ^32P-radiolabeled rat GAPDH cDNA, which was used as a housekeeping gene. […] Quantitation of collagenase-1 and stromelysin-expression mRNA levels was conducted. The MMP-1 and MMP-3 expression levels were normalized with GAPDH.

stromelysin (MMP-3) = experiment: IL-1 induced MMP-3 (stromelysin) mRNA expression in chondrocytes, Northern blot; format: cell-based
Description: as §2

[4] = system: Primary human smooth muscle cells; experiment: Smooth muscle cell migration assay (Boyden chamber, rhPDGF-BB chemotaxis); format: cell-based; settings: chemotaxis in response to rhPDGF-BB 10 ng/ml, 4 hours
Description: Primary human smooth muscle cells were starved of serum in smooth muscle cell basal media containing insulin and human basic fibroblast growth factor (bFGF) for 16 hours prior to the assay. For the migration assay, cells were trypsinized to remove cells from flasks, washed with migration media and diluted to a concentration of 2-2.5×10^5 cells/ml in migration media. […] A 100 μL volume of smooth muscle cells (approximately 20,000-25,000 cells) was added to the top of a Boyden chamber assembly (Chemicon QCM CHEMOTAXIS 96-well migration plate). To the bottom wells, the chemotactic agent, recombinant human platelet derived growth factor (rhPDGF-BB) was added at a concentration of 10 ng/ml in a total volume of 150 μL. […] Plates were incubated for 4 hours to allow cell migration.
At the end of the 4-hour period, cells in the top chamber were discarded and the smooth muscle cells attached to the underside of the filter were detached for 30 minutes at 37° C. in Cell Detachment Solution (Chemicon). […] Relative fluorescence units from triplicate wells were averaged after subtracting background fluorescence (control chamber without chemoattractant) and average number of cells migrating was obtained from a standard curve of smooth muscle cells serially diluted from 25,000 cells/well down to 98 cells/well.

AP-1 = experiment: IL-1 induced AP-1 DNA binding activity, gel mobility shift assay; format: cell-based; settings: chondrocyte nuclear lysates, pretreated with paclitaxel 10^−7 to 10^−5 M for 24 hours
Description: Binding activity was assayed with a radiolabeled human AP-1 sequence probe and gel mobility shift assay. Extracts from chondrocytes untreated or treated with various amounts of paclitaxel (10^−7 to 10^−5 M) followed by IL-1β (20 ng/ml) were incubated with excess probe on ice for 30 minutes, followed by non-denaturing gel electrophoresis. The “com” lane contains excess unlabeled AP-1 oligonucleotide.

[5] = system: phosphatases of regenerating liver (PRL); settings: cited from earlier work
endo-exonuclease = settings: cited from earlier work
[6] = molecular target: protein tyrosine phosphatase 1B (PTP1B) (Homo sapiens, UniProt P18031); settings: cited from earlier work
[7] = system: Candida spp., Aspergillus spp., Sporothrix schenckii, Penicillium marneffei, Malassezia furfur, Cryptococcus neoformans, Trichosporon spp. and …; settings: against most Candida spp., Aspergillus spp. and other listed fungi; cited from earlier work
[8] = 10^−5 M paclitaxel, 24 hours pretreatment
[9] = chondrocytes pretreated with paclitaxel for 24 hours

protein tyrosine phosphatase 1B (PTP1B), sequence (P18031 whole entry): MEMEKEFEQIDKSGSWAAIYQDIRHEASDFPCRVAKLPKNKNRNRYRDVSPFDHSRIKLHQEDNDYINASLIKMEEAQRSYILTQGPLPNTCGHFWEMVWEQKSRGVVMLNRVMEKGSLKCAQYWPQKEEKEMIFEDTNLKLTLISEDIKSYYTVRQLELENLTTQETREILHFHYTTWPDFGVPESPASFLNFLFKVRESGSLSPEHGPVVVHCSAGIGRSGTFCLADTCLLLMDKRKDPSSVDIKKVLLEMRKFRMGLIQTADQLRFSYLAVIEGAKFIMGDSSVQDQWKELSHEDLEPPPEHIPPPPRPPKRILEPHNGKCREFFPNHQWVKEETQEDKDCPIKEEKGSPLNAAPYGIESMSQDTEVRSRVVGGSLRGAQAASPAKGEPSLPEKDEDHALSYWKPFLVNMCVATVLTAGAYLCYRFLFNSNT

In the case of `CCC(C)n1ncn(-c2ccc(N3CCN(c4ccc(OC[C@H]5CO[C@](Cn6cncn6)(c6ccc(Cl)cc6Cl)O5)cc4)CC3)cc2)c1=O` (mixture of isomers) [itraconazole], the “anti-fungal activity against C. glabrata in combination with a manganese compound” value (from here on “anti-fungal activity against C. glabrata”) (C. glabrata) is listed as “enhances”.
For `CC(=O)N1CCN(c2ccc(OC[C@@H]3CO[C@@](Cn4ccnc4)(c4ccc(Cl)cc4Cl)O3)cc2)CC1` (racemic) [ketoconazole], the “solubility, in words” value [1] is given as “essentially insoluble in water”.
Work on `O=c1[nH]cc(F)c(=O)[nH]1` [5-fluorouracil] yielded an MIC (S. pyogenes C721) of 100 µM (≈ 13 µg/mL), an MIC [2] of 10 µM (≈ 1.3 µg/mL) and an MIC (S. aureus ATCC25923 C622) of 0.1 µM (≈ 0.013 µg/mL). The MIC (S. epidermidis C621) was 0.1 µM (≈ 0.013 µg/mL).
For `[F][Al]([F])[F]` [AIF3], the “lowest concentration that prevented IL-1-induced collagenase expression” value (collagenase) was 100 nM.
For `C[C@@H]1[C@H](O)[C@@H](C)/C=C/C=C/C=C/C=C/C=C/C=C/C=C/[C@H](O[C@@H]2O[C@H](C)[C@@H](O)[C@H](N)[C@@H]2O)C[C@@H]2O[C@](O)(C[C@@H](O)C[C@@H](O)[C@H](O)CC[C@@H](O)C[C@@H](O)CC(=O)O[C@H]1C)C[C@H](O)[C@H]2C(=O)O` [Amphotericin B, amphotericin B], the stability in solution [3] is given as “unstable in solution” and the “solubility, in words” value [1] is given as “poorly water soluble”.
In the case of `CN(C)/N=N/c1[nH]cnc1C(N)=O` [Dacarbazine, dacarbazine], the “solubility, in words” value [1] is given as “poorly soluble in water and ethanol”.
For `N#CC1=C(N)Oc2c(ccc3ccccc23)C1c1cccc([N+](=O)[O-])c1` (stereo not shown) [LY290181], the “lowest concentration that prevented IL-1-induced collagenase expression” value (collagenase) was 100 nM.
For `COc1c2occc2cc2ccc(=O)oc12` [Methoxsalen, methoxsalen], the “solubility, in words” value [1] is listed as “very poorly soluble in water, slightly soluble in alcohol, and readily soluble in propylene glycol”.
In the case of `N=C(N)c1ccc(OCCCCCOc2ccc(C(=N)N)cc2)cc1` [Pentamidine isethionate, pentamidine isethionate], the “solubility, in words” value [1] is listed as “soluble in water and glycerin and insoluble in ether, acetone, and chloroform”.
In the case of `C[N+]1(CCCCC[N+]2(C)CCCC2)CCCC1` [Pentolinium ditartrate, pentolinium], the “solubility, in words” value [1] is given as “highly soluble in water”.
In the case of `Nc1ccc(/N=N/c2ccccc2)c(N)n1` [Phenazopyridine base, phenazopyridine], the “solubility, in words” value [1] is listed as “slightly soluble in water and alcohol”.
In the case of `NNCCc1ccccc1` [Phenelzine, phenelzine], the “solubility, in words” value [1] is listed as “highly soluble in water and very poorly soluble in alcohol”.
In the case of `NC(=O)c1ncn([C@@H]2O[C@H](CO)[C@@H](O)[C@H]2O)n1` [Ribavirin, ribavirin], the “solubility, in words” value [1] is given as “only slightly soluble in alcohol”.
For `Clc1ccc2c(c1)C(N1CCNCC1)=Nc1ccccc1O2` [amoxapine], the “effect on ERK activation” value (ERK) is given as “unaffected”, the “effect of the individual components alone on joint swelling” value (joint swelling) is given as “modest or no benefit” and the “effect on p38 and JNK activation” value (p38 and JNK) is given as “Inhibition”. The “potentiation of prednisolone's ability to transactivate a GRE reporter plasmid” value (GRE reporter plasmid) was “does not potentiate”, the “effect on NFAT activation, translocation and transactivation” value (NFAT) was “block” and the “effect of the individual components alone on TNF-α production” value (TNF-α) was “modest or no benefit”. The “effect on NFkB and AP1 activation” value (NFkB and AP1) was “partially inhibits”.
`CC[C@@]1(O)C(=O)OCc2c1cc1n(c2=O)Cc2cc3ccccc3nc2-1` [camptothecin] gave an MIC (S. epidermidis C621) of 100 µM (≈ 34.8 µg/mL).
In the case of `CC[C@H](C)C[C@H](C)CCCCCCCCC(=O)N[C@H]1C[C@@H](O)[C@@H](NCCN)NC(=O)[C@@H]2[C@@H](O)CCN2C(=O)[C@H]([C@H](O)CCN)NC(=O)[C@H]([C@H](O)[C@@H](O)c2ccc(O)cc2)NC(=O)[C@@H]2C[C@@H](O)CN2C(=O)[C@H]([C@@H](C)O)NC1=O` [caspofungin], the “anti-fungal activity against C. glabrata” value (C. glabrata) is given as “enhances”.
With `[2H]O[2H]` [deuterium oxide] the “lowest concentration that prevented IL-1-induced collagenase expression” value (collagenase) was 100 nM.
For `OC(Cn1cncn1)(Cn1cncn1)c1ccc(F)cc1F` [fluconazole], the “anti-fungal activity against C. glabrata” value (C. glabrata) is given as “enhances”.
For `CCOC(=O)CN` [glycine ethyl ester], the “lowest concentration that prevented IL-1-induced collagenase expression” value (collagenase) was 100 nM.
In the case of `CC(=O)O[C@H]1C(=O)[C@@]2(C)[C@H]([C@H](OC(=O)c3ccccc3)[C@]3(O)C[C@H](OC(=O)[C@H](O)[C@@H](NC(=O)c4ccccc4)c4ccccc4)C(C)=C1C3(C)C)[C@]1(OC(C)=O)CO[C@@H]1C[C@@H]2O` [paclitaxel], the “collagenase mRNA levels (IL-1 induced)” value (collagenase-1 (MMP-1); [8]) is reported as “complete inhibition”, the “collagenase mRNA levels (IL-1 induced)” value (collagenase-1 (MMP-1); [9]) is reported as “significantly reduced” and the “concentration inhibiting collagenase expression in vitro” value (collagenase-1 (MMP-1); chondrocytes, IL-1 induced) is reported as 10^−6 M. The “stromelysin mRNA levels (IL-1 induced)” value (stromelysin (MMP-3); [8]) was “complete inhibition”, the “stromelysin mRNA levels (IL-1 induced)” value (stromelysin (MMP-3); [9]) was “significantly reduced” and the “concentration inhibiting stromelysin expression in vitro” value (stromelysin (MMP-3); chondrocytes, IL-1 induced) was 10^−6 M. For the same compound, the IC50 [4] was 0.76 nM and the “IL-1 induced AP-1 binding activity to oligonucleotides” value (AP-1) was “decreased”.
For `N=C(N)c1ccc(OCCCCCOc2ccc(C(=N)N)cc2)cc1` [pentamidine], the “inhibition of the oncogenic phosphatases of regenerating liver (PRL)” value [5] is listed as “potent inhibitor”, the “inhibition of the activity of endo-exonuclease” value (endo-exonuclease) is listed as “inhibit” and the “inhibition of protein tyrosine phosphatase 1B (PTP1B)” value [6] is listed as “effective inhibitor”.
In the case of `CN(C/C=C/C#CC(C)(C)C)Cc1cccc2ccccc12.Cl` [terbinafine], the “in vitro anti-fungal activity” value [7] is given as “has activity” and the “anti-fungal activity against C. glabrata” value (C. glabrata) is given as “enhances”.
For `Nc1ncnc2c1ccn2[C@@H]1O[C@H](CO)[C@@H](O)[C@H]1O` [tubercidin], the “lowest concentration that prevented IL-1-induced collagenase expression” value (collagenase) was 100 nM.
In the case of epothilone, the “lowest concentration that prevented IL-1-induced collagenase expression” value (collagenase) is reported as 100 nM.
For “ethylene glycol bis-(succinimidylsuccinate)”, the “lowest concentration that prevented IL-1-induced collagenase expression” value (collagenase) was 100 nM.
In the case of hexylene glycol, the “lowest concentration that prevented IL-1-induced collagenase expression” value (collagenase) is reported as 100 nM.
